Measurements: article PMC3869945, “Synthetic 1,4-Pyran Naphthoquinones Are Potent Inhibitors of Dengue Virus Replication” (PLoS ONE, 2013)

Tests used:
[1] = target: T1, DENV-2 NS3 (full-length, NS3FL) ATPase activity (Dengue virus type 2, UniProt P14340); experiment: Colorimetric NTPase (ATPase) assay with purified full-length NS3; format: biochemical; details: for NS3 ATPase inhibition, statistical difference from control (unpaired t-test, p < 0.05): screening in duplicate; for IC50: compound ≤ 100 μM
T1 construct: The fragment corresponding to amino acids 1 to 619 of NS3FL was amplified; 10xHis (N, cleaved yes); ubiquitin (N, cleaved yes); made in house; host or cells: E. coli Rosetta (λDE3)
Procedure: The ATPase activity of NS3 was determined by measuring the extension of hydrolysis of NTP to NDP and Pi. The amount of free inorganic phosphate released was calculated by the hydrolysis of ATP using a standard curve with known Pi concentrations, and the reaction was measured at 660 nm using SpectraMax M5 spectrophotometer (Molecular Devices). Compounds were diluted from 20 mM or 40 mM stock solution prepared in 100% DMSO. These compounds were diluted to a final concentration of 10% DMSO in the assay buffer. The compound screening assay was performed in 96-well plate, and in each well reaction containing 600 nM NS3FL, 40 mM Tris-HCl (pH 7.5), 5 mM MgCl2, 5 mM DTT, 0.1M KCl were pre-incubated with 50µM of compounds (or varying concentrations of the compound) for 10 min at 30 °C. The kinetic activity was initiated by the addition of 1 mM of ATP substrate and incubation for 10 min at 30°C. Reactions were stopped with addition of 20 μL 50% TCA, followed by 80 μL of ammonium molibidate solution and 40 μL of reducing agent. Absorbance was read and data were processed on Sigma Plot Version 10.0. The initial reaction velocities (Vi) of product formation were determined from progress curves using the linear regression method and data converted to residual activity and/or calculate IC50% assuming Michelis-Mentem kinetics. The experiments were carried out in duplicate and the statistical difference between the inhibition reaction in the presence of each compound and the control were evaluated by unpaired t-test analysis.
Once the ATPase activity was confirmed after purification process, we used the colorimetric assay developed by Fiske and Subbarow for the screening of compounds, which was performed using 600 nM of NS3FL in reactions containing 40 mM Tris-HCl (pH 7.5), 5 mM DTT, 100 mM KCl, 5 mM MgCl2, and 1 mM ATP and 50 µM of the pyran naphthoquinones 8, 9 and 10. […] The percentage of NS3FL ATPase activity inhibition varied from 15 to 50% of the untreated control.

Vero cells = experiment: Cytotoxicity assay, neutral red staining (confirmed with CellTiter Blue); format: cell-based, African Green Monkey; details: for Viability of uninfected host cell cultures: up to 100 µM, 72 h, neutral red
Procedure: Cell toxicity of all compounds used in this work was tested in Vero and HepG2 cells by Neutral Red dye exclusion assay. Briefly, cells were cultured with varying concentrations of each compound and incubated for 72 hours at 37°C. After this period, the cells were incubated with 0.05% neutral red solution for 3 hours, washed with 1X PBS and fixed with 20% paraformaldehyde for 5 min. Cells were washed again and the incorporated dye was extracted with a 50% methanol and 1% acetic acid solution for 20 min. Plates were read at 490nm in a ELISA reader. Results obtained with the neutral red dye exclusion assay were confirmed using the CellTiter Blue Cell Viability Kit (Promega, Madison - USA) according to manufacturer’s instructions.
The compounds were initially screened regarding their toxicity level after culturing Vero and HepG2 cells with the effective concentration of each compound. After 72h, cellular viability was analyzed by neutral red staining and confirmed by the conversion of redox resazurin into fluorescent resorufin.

DENV-2 [2] = experiment: Virus replication inhibition assay in Vero cells, cell-free viral RNA by qPCR; format: cell-based; details: for % of Inhibition of DENV-2 Replication (qPCR): DENV-2 infected Vero cells, m.o.i 0.1, 72 h, highest non-toxic concentration (μM, in parentheses after label): 8d 25, 9b and 9c 100, 10a and 10b 12.5, Ribavirin 200; for Inhibition of DENV-2 replication (in words): highest non-toxic concentration; for IC50: qPCR, 100 to 0.4 μM dose response, Hill regression
Procedure: In order to test the anti-viral effect of the compounds used in this work, monolayers of Vero cells were inoculated with DENV-2 at an m.o.i of 0.1 for 2 hours. After this period, cells were washed with 1X PBS to remove unbound viruses and fresh media was added with the highest non-cytotoxic concentration of the compounds. Infected cells were also cultured with culture medium or 1% DMSO, as negative controls, or with 200μM of Ribavirin® as reference drug for DENV replication inhibition. After 72 h, culture supernatants were collected and viral RNA was extracted using the QIAamp Viral RNA Mini Kit (Qiagen – Hamburg, Germany), according to manufacturer’s instructions. The synthesis of cDNA was performed with random hexamers as primers and the High Capacity cDNA kit (LifeTechnologies – Carlsbad, USA) according to manufacturer’s instructions. The detection and quantification of the cell free viral genomic RNA was performed by qPCR using specific primers and probe hybridizing in the protein E gene region as already described. qPCR conditions were as follow: a reaction mixture consisting of 12.5μL of TaqMan (Invitrogen – Carlsbad, USA), 50 pmol of each primer, 9 pmol of the probe and 7μL of the cDNA reaction to a final volume of 25μL was submitted to 40 cycles of amplification in a ABI PRISM 7000 Detection System (LifeTechnologies – Carlsbad, USA) using 60°C annealing temperature. Amplification results were analyzed using the 7000 SDS software (LifeTechnologies – Carlsbad, USA) and the threshold parameter was manually adjusted.
The efficiency of the qPCR was calculated based on the slope of a Ct versus Template Concentration curve. To generate the calibration curve, a purified stock of DENV-2 containing 10^5 Plaque forming unities/ml was serially diluted and used to RNA extraction followed by cDNA synthesis, which was in turn used as template for the qPCR. A value of -3.30 was achieved, which represents an efficiency close to 100%. Based on this efficiency for the qPCR, the percentage of inhibition of DENV replication was calculated by the ΔΔCT method.
A dose response curve was also performed with the compounds that inhibited DENV replication by at least 30%. For this purpose, DENV-2-infected Vero cells were cultured with the selected compounds at concentrations varying from 100 to 0.4 μM and virus replication was measured by qPCR as above. IC50 values were obtained by the Hill’s regression curve using the software Prism 5. Experiments were always performed in triplicates. All results were confirmed in HepG2 cells by qPCR and by TCID50 in Vero cells.

DENV-2 [3] = experiment: Tissue Culture Infectious Dose (TCID50) confirmation of replication inhibition in Vero cells; format: cell-based; details: DENV-2 infected Vero cells
Procedure: Viruses used in this work include a DENV-2 prototype 16681 and a Brazilian isolate (44/02 - from Fundação Oswaldo Cruz – RJ - Brazil). Virus stocks were generated by infecting Vero cells at an 80% confluence with a multiplicity of infection (m.o.i) of 0.1. Infected cells were incubated at 37 °C for 5-7 days and inspected every day until the cytopathic effect was clearly observed. Supernatants were then collected, centrifuged at 1,200 x g for 10 min. to clear cellular debris and stored at -70°C until use. The titter of viral stocks was measured by TCID(50)% using serial dilutions of 10^1 to 10^7 of the viral stocks inoculated into Vero cells. The viral titter was calculated according with Reed and Munch.
A dose response curve was also performed with the compounds that inhibited DENV replication by at least 30%. For this purpose, DENV-2-infected Vero cells were cultured with the selected compounds at concentrations varying from 100 to 0.4 μM and virus replication was measured by qPCR as above. […]
To analyze the impact of the selected compounds on DENV replication, cells were infected and cultured with the highest non-toxic concentration of each compound and virus replication was analyzed by qRT-PCR. […] The differences in the percentage of inhibition when viral replication was measured by qRT-PCR and TCID50 were probably due to the differences in the sensibility of these assays. […]

[4] = target: T2, DENV-2 NS3 protease domain linked to the NS2B cofactor (Dengue virus type 2, UniProt P14340); experiment: NS3 protease inhibition assay with NS2B cofactor; format: biochemical; details: in the presence of the NS2b cofactor, data not shown
T2 construct: the NS3 protease domain linked to the NS2B cofactor was purified; made in house
Procedure: We also evaluated whether the compounds were able to suppress the proteolytic activity of DENV-2 NS3. Several studies have shown that the NS2B cofactor is required by the protease domain to form a proteolytic active domain [47, 48]. Therefore, the NS3 protease domain linked to the NS2B cofactor was purified and the inhibition assay was performed as described by Leung and co-workers.

T1 sequence (P14340 1476-2093): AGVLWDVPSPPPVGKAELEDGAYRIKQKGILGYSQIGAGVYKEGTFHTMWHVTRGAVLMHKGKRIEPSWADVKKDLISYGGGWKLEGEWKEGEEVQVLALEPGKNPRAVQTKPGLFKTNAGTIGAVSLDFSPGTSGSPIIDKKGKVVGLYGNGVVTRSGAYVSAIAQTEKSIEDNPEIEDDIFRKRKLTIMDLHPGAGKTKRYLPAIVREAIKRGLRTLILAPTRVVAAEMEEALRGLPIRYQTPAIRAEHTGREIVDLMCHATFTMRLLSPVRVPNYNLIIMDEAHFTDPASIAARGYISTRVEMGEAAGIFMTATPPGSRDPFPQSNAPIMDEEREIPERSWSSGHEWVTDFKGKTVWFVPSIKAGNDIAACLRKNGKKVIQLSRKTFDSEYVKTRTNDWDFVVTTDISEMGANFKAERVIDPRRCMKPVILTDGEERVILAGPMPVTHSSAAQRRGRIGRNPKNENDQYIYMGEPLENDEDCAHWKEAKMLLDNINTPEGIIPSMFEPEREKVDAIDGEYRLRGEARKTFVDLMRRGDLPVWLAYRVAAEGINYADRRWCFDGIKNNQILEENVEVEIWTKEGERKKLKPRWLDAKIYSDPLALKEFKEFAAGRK
T2 sequence (P14340 1476-1653): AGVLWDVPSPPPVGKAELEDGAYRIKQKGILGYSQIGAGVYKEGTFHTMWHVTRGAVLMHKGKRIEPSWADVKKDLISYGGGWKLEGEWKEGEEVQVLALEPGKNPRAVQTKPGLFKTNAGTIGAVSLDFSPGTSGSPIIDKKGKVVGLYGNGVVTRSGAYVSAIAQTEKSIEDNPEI
T2 sequence (P14340 1398-1437): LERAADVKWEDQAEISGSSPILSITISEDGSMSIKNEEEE

Structure (SMILES): Cc1ccc(C2CC(c3ccc([N+](=O)[O-])cc3)C3=C(O2)c2ccccc2C(=O)C3=O)cc1 (stereo not drawn) [8b]
- NS3 ATPase inhibition, statistical difference from control (unpaired t-test, p < 0.05) ([1]; 50 µM compound): statistically different

Structure (SMILES): Cc1ccc(C2CC(c3cccs3)C3=C(O2)c2ccccc2C(=O)C3=O)cc1 (stereo not drawn) [8c]
- Reduction of the NS3 ATPase activity ([1]; 50 µM compound, 600 nM NS3FL, 1 mM ATP): two-fold reduction
- NS3 ATPase inhibition, statistical difference from control (unpaired t-test, p < 0.05) ([1]; 50 µM compound): statistically different
- Toxicity to the cell culture (Vero cells; concentration as low as 0.4 μM): highly toxic

Structure (SMILES): Cc1ccc(C2CC(c3ccccc3)C3=C(O2)c2ccccc2C(=O)C3=O)cc1 (stereo not drawn) [8d]
- % of Inhibition of DENV-2 Replication (qPCR) (DENV-2 [2]): 0%
- Inhibition of DENV-2 replication (in words) (DENV-2 [2]; Vero cells): did not inhibit DENV-2 replication

Structure (SMILES): Cc1ccc(C2CC(c3ccc([N+](=O)[O-])cc3)C3=C(O2)C(=O)c2ccccc2C3=O)cc1 (stereo not drawn) [9b]
- % of Inhibition of DENV-2 Replication (qPCR) (DENV-2 [2]): 99.0%
- IC50 (DENV-2 [2]; Vero cells): 1640 nM
- inhibition at 100 µM (DENV-2 [3]; Dengue virus, DENV2, Vero): 99.8%
- IC50 ([1]; 600 nM NS3FL, 1 mM ATP): > 100000 nM
- Effect against the NS3 protease activity [4]: did not observe any effect
- Viability of uninfected host cell cultures (Vero cells): did not reduce the viability

Structure (SMILES): Cc1ccc(C2CC(c3ccc([N+](=O)[O-])cc3)C3=C(O2)C(=O)c2ccccc2C3=O)cc1 (stereo not drawn) [9c]
- % of Inhibition of DENV-2 Replication (qPCR) (DENV-2 [2]): 99.6%
- IC50 of 9c fold lower than that of compound 9b (DENV-2 [2]; DENV-2 replication in Vero cells): 5.3 fold
- Concentration to inhibit 50% of DENV replication, fold lower than aglycon analogue of teicoplanin (DENV-2 [2]; Vero cells): 20 fold
- IC50 (DENV-2 [2]; Vero cells): 311 nM
- % of Inhibition of DENV-2 Replication (TCID50) (DENV-2 [3]; 100 μM): 99.99%
- IC50 ([1]; 600 nM NS3FL, 1 mM ATP): 80000 ± 12000 nM
- NS3 ATPase inhibition, statistical difference from control (unpaired t-test, p < 0.05) ([1]; 50 µM compound): statistically different
- Effect against the NS3 protease activity [4]: did not observe any effect
- Viability of uninfected host cell cultures (Vero cells): did not reduce the viability

Structure (SMILES): O=C1C2=C(C(=O)c3ccccc31)C(c1ccccc1)C1=C(O2)C(=O)c2ccccc2C1=O [10a]
- % of Inhibition of DENV-2 Replication (qPCR) (DENV-2 [2]): 0%
- NS3 ATPase inhibition, statistical difference from control (unpaired t-test, p < 0.05) ([1]; 50 µM compound): statistically different

Structure (SMILES): O=C1C2=C(C(=O)c3ccccc31)C(c1ccc([N+](=O)[O-])cc1)C1=C(O2)C(=O)c2ccccc2C1=O [10b]
- % of Inhibition of DENV-2 Replication (qPCR) (DENV-2 [2]): 0%
- Inhibition of DENV-2 replication (in words) (DENV-2 [2]; Vero cells): did not inhibit DENV-2 replication
- NS3 ATPase inhibition, statistical difference from control (unpaired t-test, p < 0.05) ([1]; 50 µM compound): statistically different

Structure (SMILES): NC(=O)c1ncn([C@@H]2O[C@H](CO)[C@@H](O)[C@H]2O)n1 [Ribavirin, reference compound]
- % of Inhibition of DENV-2 Replication (qPCR) (DENV-2 [2]): 78.00%
